Experimental data as given in ChEMBL document CHEMBL1122053, “A new, potent, conformationally restricted analogue of amphetamine: 2-amino-1,2-dihydronaphthalene” (1982).
Active and inactive are the calls of the source. The calls are words filed in the database; no cut-off is given here.

Experiments:
Mus musculus [1] = organism: Mus musculus; assay: Evaluated for the percentage blockade of activity in mice; type: functional
Mus musculus [2] = organism: Mus musculus; assay: Evaluated for the spontaneous motor activity in mice and the mean total activity (MTA) was reported; Expressed as counts/90 min/3 mice; type: functional
Mus musculus [3] = assay: Ability to stimulate mice at dose of 8 mg/kg; Slight increase in spontaneous motor activity; type: functional, organism-based; parameters: dose 8 mg/kg
Rattus norvegicus [4] = assay: Number of rats falling (1) within each stereotypy classification after intraperitoneal administration (110 uM/Kg); continuous sniffing, some arousal; type: functional, organism-based
Rattus norvegicus [5] = assay: Number of rats falling (3) within each stereotypy classification after intraperitoneal administration (110 uM/Kg); continuous sniffing, some head bobbing and weaving (total rats 4); type: functional, organism-based
Rattus norvegicus [6] = assay: Number of rats falling (4) within each stereotypy classification after intraperitoneal administration (110 uM/Kg); continuous sniffing, with repetitive sequences of head and limb movements, as well as some licking and rearing (total rats 4); type: functional, organism-based

CC(N)Cc1ccccc1.COC(=O)C(C)(N)Cc1ccc(O)cc1 (stereo not given)
Block of activity (Mus musculus [1]): 64.2%
MTA (Mus musculus [2]): 5144

COC(=O)C(C)(N)Cc1ccc(O)cc1.NC1C=Cc2ccccc2C1 (stereo not given)
Block of activity (Mus musculus [1]): 59.3%
MTA (Mus musculus [2]): 3491

NC1CCc2ccccc2C1 (stereo not given)
Activity (Mus musculus [3]): Active

COC(=O)[C@H]1[C@H]2C[C@@H]3c4[nH]c5cc(OC)ccc5c4CCN3C[C@H]2C[C@@H](OC(=O)c2cc(OC)c(OC)c(OC)c2)[C@@H]1OC.Cl.NC1C=Cc2ccccc2C1 (racemic)
Activity (Rattus norvegicus [4]): continuous sniffing, some arousal
Activity (Rattus norvegicus [5]): continuous sniffing, some arousal

NC1C=Cc2ccccc2C1 (racemic)
Activity (Rattus norvegicus [6]): continuous sniffing, with repetitive sequences of head and limb movements, as well as some licking and rearing (total rats 4)

Cl.NC1C=Cc2ccccc2C1 (single isomer, unassigned; (-))
MTA (Mus musculus [2]): 8566

C[C@H](N)Cc1ccccc1 [DEXTROAMPHETAMINE]
MTA (Mus musculus [2]): 14356
